Experimental data reported in patent US12655142B2 (Merck Patent GmbH, priority 2019, dated 2026).
Where a name gives a salt, the structure may show the parent alone. Read-outs that look alike come from different tables or passages of the source.

Legend:
[1] = target: T1, GIST430 cell line expressing constitutive active cKIT receptor tyrosine kinase (Δ560-576 deletion) (Homo sapiens, UniProt P10721, DEL560-576); test: Cellular cKIT autophosphorylation (phospho-Y307-cKIT, Luminex bead assay) in GIST430 cells; assay type: cell-based
T1 construct: endogenous in cells; host or cells: GIST430 cells
T1 sequence (P10721 with tags, fused parts or gaps DEL560-576): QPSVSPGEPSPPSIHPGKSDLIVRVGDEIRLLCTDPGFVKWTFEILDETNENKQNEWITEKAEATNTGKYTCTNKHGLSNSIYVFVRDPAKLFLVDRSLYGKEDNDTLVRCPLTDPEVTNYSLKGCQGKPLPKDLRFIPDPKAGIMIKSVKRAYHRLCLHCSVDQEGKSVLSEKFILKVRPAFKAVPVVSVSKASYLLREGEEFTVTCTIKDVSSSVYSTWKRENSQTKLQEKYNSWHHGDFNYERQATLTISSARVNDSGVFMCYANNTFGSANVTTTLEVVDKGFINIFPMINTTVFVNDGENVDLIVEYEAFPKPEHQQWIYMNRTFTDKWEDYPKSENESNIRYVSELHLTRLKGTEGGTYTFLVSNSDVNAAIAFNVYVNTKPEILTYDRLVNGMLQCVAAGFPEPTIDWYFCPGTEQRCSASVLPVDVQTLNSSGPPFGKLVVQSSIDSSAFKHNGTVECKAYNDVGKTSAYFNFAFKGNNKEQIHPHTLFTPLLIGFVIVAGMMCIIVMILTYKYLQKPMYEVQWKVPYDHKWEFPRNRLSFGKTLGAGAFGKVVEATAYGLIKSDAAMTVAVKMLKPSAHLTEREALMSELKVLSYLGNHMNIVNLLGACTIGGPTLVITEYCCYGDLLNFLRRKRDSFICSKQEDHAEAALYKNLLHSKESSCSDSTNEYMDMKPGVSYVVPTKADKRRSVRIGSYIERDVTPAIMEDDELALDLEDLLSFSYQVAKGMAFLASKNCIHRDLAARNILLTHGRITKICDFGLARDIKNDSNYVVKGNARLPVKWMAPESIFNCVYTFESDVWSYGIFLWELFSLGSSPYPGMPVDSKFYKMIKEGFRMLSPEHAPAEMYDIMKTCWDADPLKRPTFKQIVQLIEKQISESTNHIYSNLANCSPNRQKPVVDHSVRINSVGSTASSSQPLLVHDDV
Experimental: Assay Principle for Cellular Testing of cKIT Mutant Inhibitors
The GIST430 cell line expressing constitutive active cKIT receptor tyrosine kinase (Δ560-576 deletion) and the Imatinib resistant GIST430/654 cell line expressing mutated constitutively active cKIT receptor tyrosine kinase (Δ560-576 deletion and V654A point mutation) were employed for assessing cellular potency of compounds. Cellular activity of mutant cKIT was determined by the degree of cKIT autophosphorylation at tyrosine 307 using a Luminex-based bead assay. GIST430 cells were plated with 22,000 cells per well of a 96-well plate in 100 μl medium (85% IMDM/15% FCS) and GIST430/654 cells were plated with 25,000 cells per well of a 96-well plate in 100 μl medium (85% IMDM/15% FCS supplemented with 100 nM Imatinib). At the following day compounds were added in a serial dilution for 45 min. Then, cells were lysed with 90 μl lysis buffer (20 mM Hepes pH 7.5, 200 mM NaCl, 1.5 mM MgCl2×6H2O, 0.4 mM EDTA, 1% Triton-X-100, 1% Phosphatase-Inhibitor II, 20 mM β-Glycerolphosphat, 0.1% Protease-Inhibitor Cocktail III, 0.01% Benzonase) and lysates were cleared by centrifugation through a 96-well filter plate (0.65 μm). Samples were incubated with Luminex-beads which were coupled with an anti-total cKIT antibody overnight at 4° C. under gentle agitation. For detection of phospho-Y307-cKIT a phosphospecific antibody and a species-specific PE-labeled secondary antibody were added. The amount of phospho-Y307-cKIT was determined in a Luminex 200 instrument measuring 100 events per well within 60 seconds.
Counts from samples treated with compounds were calculated as percent of control from solvent treated (0.3% DMSO) samples. Dose-response curves were fitted and IC50 values were determined using Genedata Screener software.

[2] = target: T2, GIST430/654 cell line expressing mutated constitutively active cKIT receptor tyrosine kinase (Δ560-576 deletion and V654A point mutation) (Homo sapiens, UniProt P10721, DEL560-576/V654A); test: Cellular cKIT autophosphorylation (phospho-Y307-cKIT, Luminex bead assay) in GIST430/654 cells; assay type: cell-based; details: compounds 45 min, read-out: GIST 430/654 IC50
T2 construct: endogenous in cells; host or cells: GIST430/654 cells
T2 sequence (P10721 with tags, fused parts or gaps DEL560-576/V654A): as the sequence (P10721 with tags, fused parts or gaps DEL560-576) above, with V612A counted along it
Method in brief: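 GIST430 (Δ560-576) and imatinib-resistant GIST430/654 (plus V654A; grown with 100 nM imatinib) cells were plated in IMDM/15% FCS and treated next day with serially diluted compound for 45 min. Lysates were captured on anti-total-cKIT Luminex beads overnight at 4 °C and probed for phospho-Y307. IC50 was taken from percent of 0.3% DMSO control.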

[3] = target: T3, c-Kit(V654A) (Homo sapiens, UniProt P10721, V654A); test: c-Kit(V654A) assay (33P-ATP filter binding kinase assay); assay type: biochemical; details: recombinant human c-Kit aa 544-end V654A, ATP 200 μM
T3 construct: recombinant human c-Kit, amino acids 544-end containing the V654A mutation; GST (N)
T3 sequence (P10721 544-976 V654A): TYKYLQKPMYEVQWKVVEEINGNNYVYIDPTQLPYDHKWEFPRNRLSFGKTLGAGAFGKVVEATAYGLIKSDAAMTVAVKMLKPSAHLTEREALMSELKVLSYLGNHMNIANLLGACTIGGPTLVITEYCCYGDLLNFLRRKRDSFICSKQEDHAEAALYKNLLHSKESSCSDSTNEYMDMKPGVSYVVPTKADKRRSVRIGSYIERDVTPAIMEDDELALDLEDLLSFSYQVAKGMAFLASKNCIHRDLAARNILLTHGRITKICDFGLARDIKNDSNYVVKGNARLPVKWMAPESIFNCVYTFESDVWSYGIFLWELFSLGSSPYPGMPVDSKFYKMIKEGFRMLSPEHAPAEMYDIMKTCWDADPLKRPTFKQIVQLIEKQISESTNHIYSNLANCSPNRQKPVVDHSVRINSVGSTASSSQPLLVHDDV
Method in brief: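 Radiometric filter-binding read-out: substrate 33P incorporation counted by scintillation after P30 filtermat washes in 75 mM phosphoric acid and methanol. Enzyme: N-GST recombinant human c-Kit aa 544-end carrying V654A.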

[4] = Determination of Efflux-Ratio (ER) in Caco-2 cells; details: human, Caco-2, pH 7.4
[5] = cKIT autophosphorylation, GIST430 cells, compounds 45 min, read-out: GIST 430 IC50

Q: Which IC50 [1, 5] does the source give for `COc1ccn2c(-c3cc(NCc4ccc(-c5cnn(C)c5)cc4)ncn3)cnc2c1` [A1, 6-{7-methoxyimidazo[1,2-a]pyridin-3-yl}-N-{[4-(1-methyl-1H-pyrazol-4-yl)phenyl]methyl}pyrimidin-4-amine] here?
A: Its IC50 is 3.2e-09 M.

Q: And the IC50 [2]?
A: The IC50 was 55 nM.

Q: What about the IC50 [3] of the same compound?
A: Its IC50 is 8.6 nM.

Q: What about the efflux ratio at 2 h, 1 μM [4] of the same compound?
A: The efflux ratio at 2 h, 1 μM was under 15.

Q: Which IC50 [1, 5] does the source give for `COCCOc1ccn2c(-c3cc(NCc4ccc(-c5ccccc5)cc4)ncn3)cnc2c1` [A2, N-({[1,1′-biphenyl]-4-yl}methyl)-6-[7-(2-methoxyethoxy)imidazo[1,2-a]pyridin-3-yl]pyrimidin-4-amine] here?
A: Its IC50 is 7.7e-09 M.

Q: What about the IC50 [2] of the same compound?
A: The IC50 was 160 nM.

Q: And the IC50 [3]?
A: Its IC50 is 4.6 nM.

Q: And the efflux ratio at 2 h, 1 μM [4]?
A: Its efflux ratio at 2 h, 1 μM is under 15.

Q: For `COCCOc1ccn2c(-c3cc(NCc4ccc(-c5cnn(C)c5)cc4)ncn3)cnc2c1` [A4, 6-[7-(2-methoxyethoxy)imidazo[1,2-a]pyridin-3-yl]-N-{[4-(1-methyl-1H-pyrazol-4-yl)phenyl]methyl}pyrimidin-4-amine], which IC50 [1, 5] is on record?
A: The IC50 was 4.8e-09 M.

Q: What about the IC50 [2] of the same compound?
A: Its IC50 is 48 nM.

Q: What about the IC50 [3] of the same compound?
A: Its IC50 is 7.3 nM.

Q: What about the efflux ratio at 2 h, 1 μM [4] of the same compound?
A: Its efflux ratio at 2 h, 1 μM is under 15.

Q: What does the source list for `COCCOc1ccn2c(-c3cc(NCc4ccc(-c5cccnc5)cc4)ncn3)cnc2c1` [A5, 6-[7-(2-methoxyethoxy)imidazo[1,2-a]23yridine-3-yl]-N-{[4-(23yridine-3-yl)phenyl]methyl}pyrimidin-4-amine]?
A: IC50 [1, 5]: 5.3e-09 M; IC50 [2]: 170 nM; IC50 [3]: 8.2 nM

Q: Which results are given for `COc1ccn2c(-c3cc(NCc4ccc(-c5cccnc5)cc4)ncn3)cnc2c1` [A6, 6-{7-methoxyimidazo[1,2-a]23yridine-3-yl}-N-{[4-(23yridine-3-yl)phenyl]methyl}pyrimidin-4-amine]?
A: IC50 [1, 5]: 2e-08 M; IC50 [2]: 350 nM; IC50 [3]: 6.4 nM

Q: For `COCCOc1ccn2c(-c3cc(NCc4ccc(-c5ccn(C)n5)cc4)ncn3)cnc2c1` [A7, 6-[7-(2-methoxyethoxy)imidazo[1,2-a]pyridin-3-yl]-N-{[4-(1-methyl-1H-pyrazol-3-yl)phenyl]methyl}pyrimidin-4-amine], which IC50 [1, 5] is on record?
A: The IC50 was 6.1e-09 M.

Q: What about the IC50 [2] of the same compound?
A: Its IC50 is 300 nM.

Q: What about the IC50 [3] of the same compound?
A: Its IC50 is 4.7 nM.

Q: For `c1ccn2c(-c3cc(NCc4ccc(-n5cccn5)cc4)ncn3)cnc2c1` [A9, (6-Imidazo[1,2-a]23yridine-3-yl-pyrimidin-4-yl)-(4-pyrazol-1-yl-benzyl)-amine], which IC50 [1, 5] is on record?
A: Its IC50 is 2.4e-09 M.

Q: What about the IC50 [2] of the same compound?
A: The IC50 was 190 nM.

Q: And the IC50 [3]?
A: The IC50 was 2.2 nM.

Q: Which results are given for `COCCOc1ccn2c(-c3cc(NCc4ccc(-c5cnn(C)c5)nc4)ncn3)cnc2c1` [A11, 6-[7-(2-methoxyethoxy)imidazo[1,2-a]pyridin-3-yl]-N-{[6-(1-methyl-1H-pyrazol-4-yl)pyridin-3-yl]methyl}pyrimidin-4-amine]?
A: IC50 [1, 5]: 7e-09 M; IC50 [2]: 170 nM; IC50 [3]: 15 nM

Q: With `COCCOc1ccn2c(-c3cc(NCc4ccc(-n5ccnn5)cc4)ncn3)cnc2c1` [A16, 6-[7-(2-methoxyethoxy)imidazo[1,2-a]pyridin-3-yl]-N-{[4-(1H-1,2,3-triazol-1-yl)phenyl]methyl}pyrimidin-4-amine] as the compound, how does the IC50 [1, 5] read?
A: The IC50 was 4.2e-09 M.

Q: And the IC50 [2]?
A: Its IC50 is 130 nM.

Q: What about the IC50 [3] of the same compound?
A: The IC50 was 6.3 nM.

Q: What about the efflux ratio at 2 h, 1 μM [4] of the same compound?
A: The efflux ratio at 2 h, 1 μM was under 15.

Q: Which IC50 [1, 5] does the source give for `COc1ccn2c(-c3cc(NCc4ccc(-n5ccnn5)cc4)ncn3)cnc2c1` [A18, 6-{7-methoxyimidazo[1,2-a]pyridin-3-yl}-N-{[4-(1H-1,2,3-triazol-1-yl)phenyl]methyl}pyrimidin-4-amine] here?
A: Its IC50 is 7.2e-09 M.

Q: What about the IC50 [2] of the same compound?
A: Its IC50 is 200 nM.

Q: What about the IC50 [3] of the same compound?
A: Its IC50 is 13 nM.

Q: And the efflux ratio at 2 h, 1 μM [4]?
A: Its efflux ratio at 2 h, 1 μM is under 15.

Q: For `COc1ccn2c(-c3cc(NCc4ccc(-c5coc(C)n5)cc4)ncn3)cnc2c1` [A42, 6-{7-methoxyimidazo[1,2-a]pyridin-3-yl}-N-{[4-(2-methyl-1,3-oxazol-4-yl)phenyl]methyl}pyrimidin-4-amine], which IC50 [1, 5] is on record?
A: Its IC50 is 1.8e-09 M.

Q: And the IC50 [2]?
A: The IC50 was 59 nM.

Q: And the IC50 [3]?
A: Its IC50 is 1.3 nM.

Q: What about the efflux ratio at 2 h, 1 μM [4] of the same compound?
A: Its efflux ratio at 2 h, 1 μM is under 15.

Q: Which IC50 [1, 5] does the source give for `Cn1cc(-c2ccc(CNc3cc(-c4cnc5cc(OCCN6CCOCC6)ccn45)ncn3)cc2)cn1` [A56, [4-(1-methyl-1H-pyrazol-4-yl)-benzyl]-{6-[7-(2-morpholin-4-yl-ethoxy)-imidazo[1,2-a]pyridin-3-yl]-pyrimidin-4-yl}-amine] here?
A: The IC50 was 3.9e-09 M.

Q: And the IC50 [2]?
A: The IC50 was 50 nM.

Q: And the IC50 [3]?
A: The IC50 was 7.3 nM.

Q: And the efflux ratio at 2 h, 1 μM [4]?
A: Its efflux ratio at 2 h, 1 μM is under 15.

Q: What does the source list for `CN1CCC(COc2ccn3c(-c4cc(NCc5ccc(-c6cnn(C)c6)cc5)ncn4)cnc3c2)CC1` [A62, {6-[7-(1-methyl-piperidin-4-ylmethoxy)-imidazo[1,2-a]pyridin-3-yl]-pyrimidin-4-yl}-[4-(1-methyl-1H-pyrazol-4-yl)-benzyl]-amine]?
A: IC50 [1, 5]: 3.7e-09 M; IC50 [2]: 32 nM; IC50 [3]: 4.1 nM; efflux ratio at 2 h, 1 μM [4]: < 15

Q: Which IC50 ([1]; cell line not specified (GIST), read-out: IC50 [M] GIST) does the source give for `Cn1cc(-c2ccc(CNc3cc(-c4cnc5cc(OCCCN6CCCC6)ccn45)ncn3)cc2)cn1` [A75 hydrochloride, [4-(1-methyl-1H-pyrazol-4-yl)-benzyl]-{6-[7-(3-pyrrolidin-1-yl-propoxy)-imidazo[1,2-a]pyridin-3-yl]-pyrimidin-4-yl}-amine hydrochloride] here?
A: Its IC50 is 2.1e-09 M.

Q: What about the IC50 [3] of the same compound?
A: Its IC50 is 5.8 nM.

Q: Which IC50 [1, 5] does the source give for `Cn1ncc(-c2ccc(CNc3cc(-c4cnc5cc(OCC6CCN(C7COC7)CC6)ccn45)ncn3)cc2)n1` [A76, [4-(2-methyl-2H-[1,2,3]triazol-4-yl)-benzyl]-{6-[7-(1-oxetan-3-yl-piperidin-4-ylmethoxy)-imidazo[1,2-a]pyridin-3-yl]-pyrimidin-4-yl}-amine] here?
A: Its IC50 is 2.1e-09 M.

Q: And the IC50 [2]?
A: Its IC50 is 52 nM.

Q: And the IC50 [3]?
A: The IC50 was 7.8 nM.

Q: What about the efflux ratio at 2 h, 1 μM [4] of the same compound?
A: Its efflux ratio at 2 h, 1 μM is under 15.

Q: What does the source list for `Cn1cc(-c2ccc(CNc3cc(-c4cnc5cc(OCC6CCN(C7COC7)CC6)ccn45)ncn3)cc2)cn1` [A78, [4-(1-methyl-1H-pyrazol-4-yl)-benzyl]-{6-[7-(1-oxetan-3-yl-piperidin-4-ylmethoxy)-imidazo[1,2-a]pyridin-3-yl]-pyrimidin-4-yl}-amine]?
A: IC50 [1, 5]: 3.6e-09 M; IC50 [2]: 79 nM; IC50 [3]: 9.1 nM; efflux ratio at 2 h, 1 μM [4]: < 15

Q: With `CN1CCC(COc2ccn3c(-c4cc(NCc5ccc(-c6cnn(C)n6)cc5)ncn4)cnc3c2)CC1` [A79, {6-[7-(1-methyl-piperidin-4-ylmethoxy)-imidazo[1,2-a]pyridin-3-yl]-pyrimidin-4-yl}-[4-(2-methyl-2H-[1,2,3]triazol-4-yl)-benzyl]-amine] as the compound, how does the IC50 [1, 5] read?
A: The IC50 was 4.1e-09 M.

Q: What about the IC50 [2] of the same compound?
A: The IC50 was 28 nM.

Q: And the IC50 [3]?
A: Its IC50 is 1.5 nM.

Q: What about the efflux ratio at 2 h, 1 μM [4] of the same compound?
A: Its efflux ratio at 2 h, 1 μM is under 15.

Q: For `Cn1ncc(-c2ccc(CNc3cc(-c4cnc5cc(OCC(C)(C)O)ccn45)ncn3)cc2)n1` [A85, 2-methyl-1-(3-{6-[4-(2-methyl-2H-[1,2,3]triazol-4-yl)-benzylamino]-pyrimidin-4-yl}-imidazo[1,2-a]pyridin-7-yloxy)-propan-2-ol], which IC50 [1, 5] is on record?
A: The IC50 was 3.3e-09 M.

Q: What about the IC50 [2] of the same compound?
A: Its IC50 is 65 nM.

Q: And the IC50 [3]?
A: Its IC50 is 6.5 nM.

Q: What about the efflux ratio at 2 h, 1 μM [4] of the same compound?
A: The efflux ratio at 2 h, 1 μM was under 15.

Q: Which results are given for `COc1ccn2c(-c3ncnc(NCc4ccc(-c5cnn(C)c5)cc4)c3F)cnc2c1` [A97, 5-fluoro-6-{7-methoxyimidazo[1,2-a]pyridin-3-yl}-N-{[4-(1-methyl-1H-pyrazol-4-yl)phenyl]methyl}pyrimidin-4-amine]?
A: IC50 [1, 5]: 8.8e-09 M; IC50 [2]: 230 nM; IC50 [3]: 6.6 nM

Q: Which results are given for `Cc1cc(N2CC[C@H](F)C2)ncc1CNc1cc(-c2cnc3ccccn23)ncn1` [A155, [6-((S)-3-fluoro-pyrrolidin-1-yl)-4-methyl-pyridin-3-ylmethyl]-(6-imidazo[1,2-a]pyridin-3-yl-pyrimidin-4-yl)-amine]?
A: IC50 [1, 5]: 5.1e-08 M; IC50 [2]: 30000 nM; IC50 [3]: 92 nM
